Where two headings read alike, the source gives them in different places. Where a SMILES comes first, the peptide text is derived from it. Where no end group is shown, it is not given here. [ ]: non-standard residue; d: D form. pY = N[C@@H](Cc1ccc(OP(=O)(O)O)cc1)C(=O)O

Data set [1] is described as follows: LC-TOF/MS detection of CbR-derived peptides in serum and skeletal muscle of mice fed CbR. As to conditions: serum of mice fed CbR diet for 14 days. In kind it is in vivo, Jcl:ICR mice. The method, then: (§1) Oligopeptides were separated at 40 °C using a linear gradient of 0.1% formic acid (FA) in MS grade water (solvent A) and 0.1% FA in acetonitrile (ACN) (solvent B) for 20 min at a flow rate of 0.2 mL/min, and an Agilent 1200 series HPLC system (Agilent Technologies Inc., Santa Clara, CA, USA) equipped with a Cosmosil 5C18-MS-II column (Φ 2.0 mm × 150 mm, Nacalai Tesque Inc., Kyoto, Japan). The MS conditions comprised: drying gas, N2; flow rate, 8.0 L/min; drying gas temperature, 200 °C; drying gas pressure, 1.6 bar; HV capillary voltage, −4500 V; capillary exit, 70.0 V; skimmer 1, 50.0 V; hexapole 1, 23.0 V; hexapole RF, 100.0 Vpp; skimmer 2, 23.0 V; lens 1 transfer, 52.0 μs, and mass range m/z 100–1000. A calibration solution of 10 mM sodium formate in 50% ACN was injected at the beginning of each run. Data were analyzed using Bruker Data Analysis version 3.2 software (Bruker, Billerica, MA, USA). Calibration curves were prepared using 0.1–10 μM standards.
31 Supplementary Figure 2. Analysis of serum collected from mice fed with Non-Tg or CbR using
33 Mice were handled as described in Methods. Briefly, 6-week-old male Jcl:ICR mice (Japan SLC
34 Inc., Shizuoka, Japan) were housed with access to a standard diet and water ad libitum. […]
42 specific for CbR group. ND, not detected. […]
60 analyzed by LC-TOF/MS under conditions described in Methods. […]
61 those of possible metabolites. […] ND, not detected.

A short description of data set [2]: Transport of Cblin pentapeptides across Caco-2 cell monolayers (apparent permeability). In kind it is in vitro ADME. Particulars: human; Caco-2 (C2BBe1) monolayers, apical to basolateral, apical HBSS pH 6.0 / basolateral HBSS pH 7.4, 1 mM peptide, 0.5% DMSO, 60 min, 37 °C, TEER >300 Ω·cm2, LC–TOF/MS, means ± SEM (n = 4–6). As for the experimental part:
(§2) Cell culture and transport experiment were performed as described[24],[45]. Caco-2 cells were cultured using BD BioCoat Intestinal Epithelium Differentiation Environment kits (BD Bioscience, Franklin Lakes, NJ, USA). Caco-2 cells grown in 0.9 cm^2 Falcon cell culture inserts (polyethylene terephthalate membranes; pore size, 1.0 μm; Becton Dickinson and Co.) with a type I collagen-coated membrane (Cellmatrix type IA Collagen Gel Culturing Kit; Nitta Gelatin Inc., Osaka, Japan) were gently rinsed twice with Hanks balanced salt solution (HBSS; 137 mM NaCl, 5 mM KCl, 5.5 mM D-glucose, 4 mM NaHCO3, 0.75 mM NaHPO4·12H2O, 0.4 mM KH2PO4, 0.8 mM MgSO4·7H2O, and 1.26 mM CaCl2·2H2O, pH 6.0 adjusted with 10 mM 2-(N-morpholino)-ethanesulfonic acid). A portion (1.5 mL) of HBSS buffer (pH 6.0) was added to the apical side, and HBSS buffer (pH 7.4 adjusted with 10 mM N-2-hydroxyethylpiperazine-N′-2-ethanesulfonic acid) was added to the basolateral side. After equilibration for 15 min at 37 °C, the apical buffer was replaced with fresh HBSS (pH 6.0) containing 1 mM peptide and 0.5% DMSO. Portions (60 μL) of solutions were drawn from the apical or basolateral sides at 15, 30, 45, and 60 min to determine amounts of transported peptides. Monolayer integrity was evaluated by measuring TEER using a Millicell® ERS-2 Voltohmmeter (Merck KGaA, Darmstadt, Germany), and monolayers with a TEER of >300 Ω · cm^2 were included in the experiments. The apparent permeability coefficient (Papp, cm/s) was calculated as1 Pappcm/s=V/AC0×dC/dt where dC/dt is the change in concentration on the basolateral side over time (mM/s), V is the volume of solution in the basolateral compartment (1.5 mL), A is the surface area of the membrane (0.9 cm^2), and C0 is the initial concentration on the apical side (mM).
(§3) We investigated the involvement of PEPT1 in peptide transport by competition studies using 10 mM Gly-Sar, a PEPT1 substrate. We also investigated peptide transport over paracellular tight junctions by incubating monolayers with the tight junction opener, cytochalasin D (0.5 μg/mL) for 30 min[47] before evaluating transport.
as §1

Data set [3] concerns Caco-2 cell monolayers. Described as above. Particulars: LC–TOF/MS, n = 4–6; for Effect of Gly-Sar (PEPT1 substrate) on Papp: Caco-2, 1 mM peptide with 10 mM Gly-Sar, 60 min; for Papp in monolayers incubated with cytochalasin D vs untreated membranes: Caco-2, 1 mM peptide, pre-incubation with cytochalasin D 0.5 μg/mL for 30 min, transport 60 min. In kind it is in vitro ADME. As for the experimental part:
as §2, §3, §1

A further data set deals with Caco-2 cells. The experiment in a line: Peptidase degradation and dephosphorylation during Caco-2 transport (fragment screening by LC-TOF/MS). In kind it is in vitro ADME. Particulars: for Resistance to peptidase degradation in Caco-2 cells: 1 mM peptide, 60 min, fragments screened by m/z, no other peptide fragments found (data not shown). As for the experimental part: as §2, with “After equilibration for 15 min at 37 °C, the apical buffer was replaced with fresh HBSS (pH 6.0) containing 1 mM peptide and 0.5% DMSO. Portions (60 μL) of solutions were drawn from the apical or basolateral sides at 15, 30, 45, and 60 min to determine amounts of transported peptides.” left out
Oligopeptides were separated at 40 °C using a linear gradient of 0.1% formic acid (FA) in MS grade water (solvent A) and 0.1% FA in acetonitrile (ACN) (solvent B) for 20 min at a flow rate of 0.2 mL/min, and an Agilent 1200 series HPLC system (Agilent Technologies Inc., Santa Clara, CA, USA) equipped with a Cosmosil 5C18-MS-II column (Φ 2.0 mm × 150 mm, Nacalai Tesque Inc., Kyoto, Japan). […] Data were analyzed using Bruker Data Analysis version 3.2 software (Bruker, Billerica, MA, USA). […]

The subject of the next data set is CBLB. More on the design: method as in 2 sources, ref 9 = [9]; PMID 26874193; doi:10.1016/j.abb.2016.02.014; 9. Ohno A Structural analysis of the TKB domain of ubiquitin ligase Cbl-b complexed with its small inhibitory peptide, Cblin Arch. Biochem. Biophys. 2016 594 1 7 10.1016/j.abb.2016.02.014 26874193 ||| ref 19 = [19]; PMID 23762056; doi:10.1155/2013/907565; 19. Abe T Soy glycinin contains a functional inhibitory sequence against muscle-atrophy-associated ubiquitin ligase Cbl-b Int. J. Endocrinol. 2013 2013 907565 907565 23762056 10.1155/2013/907565 PMC36. As to conditions: cited from earlier work. The text has this: The amino acid sequence of Cblin pentapeptide was designed to inhibit interaction between CBLB and IRS1 proteins based on the ability of CBLB to recognize and bind to phosphorylated tyrosine. […] We previously elucidated the crystal structure of the TKB domain of CBLB complexed with C ...

The nature of data set [4]: Plasma pharmacokinetics after a single oral dose in rats. In kind it is in vivo, Sprague-Dawley rats.
Data set [5] deals with Caco-2 cell monolayers. Particulars: cited from earlier work. As for the experimental part:
Basolateral solutions were sampled every 15 min for 60 min and analyzed by LC–TOF/MS. […] Therefo ...

Setting [6] is: rat, single p.o. 50 mg/kg BW, n = 1.
Where [7] appears, read: rat, single p.o. 200 mg/kg BW, n = 1.

As to `CSCC[C@H](NC(=O)[C@H](Cc1ccc(O)cc1)NC(=O)CNC(=O)[C@H](CC(=O)O)NC(=O)[C@@H](N)CCC(N)=O)C(=O)N1CCC[C@H]1C(=O)N[C@@H](Cc1c[nH]c2ccccc12)C(=O)O` [Gln-Asp-Gly-Tyr-Met-Pro-Trp] (H-QDGYMPW-OH), the “Uptake of intact heptapeptide into serum” value in data set [1] was “undetectable”.

The term Papp A→B denotes how fast a substance crosses the layer from the apical side. As for `CSCC[C@H](NC(=O)[C@H](Cc1ccc(OP(=O)(O)O)cc1)NC(=O)CNC(=O)[C@@H](N)CC(=O)O)C(=O)N1CCC[C@H]1C(=O)O` [Asp-Gly-pTyr-Met-Pro] (H-DG[pY]MP-OH), in data set [2], the Papp A→B at 60 min, 1 mM turned out to be 0.35 ± 0.12 ×10⁻⁶ cm/s. Further, in the data set on Caco-2 cell monolayers [3], the “Effect of Gly-Sar (PEPT1 substrate) on Papp” value is “not affected” and the “Papp in monolayers incubated with cytochalasin D vs untreated membranes” value is “significantly higher”. Also, the “Resistance to peptidase degradation in Caco-2 cells” value in the data set with Caco-2 cells is recorded as “resistant to peptidase degradation”. The “Dephosphorylation during Caco-2 transport” value with Caco-2 cells (basolateral solution after 60 min, Asp-Gly-Tyr-Met-Pro found at an estimated concentration similar to the intact peptide) is recorded as “dephosphorylated”.

For Gly-[pY]-Met, the “Effect on CBLB-mediated ubiquitination of IRS1” value with CBLB (in vitro) is listed as “suppressive effect”.

Turning to “Asp-Ile-Tyr-Asn-Pro [modified Cblin peptide (Cblin-like peptide from soy glycinin) with non-phosphorylated tyrosine]”, the “Effect on CBLB-mediated IRS1 ubiquitination” value in the data set with CBLB is “suppresses”.

The half-life is how long it takes for the measured level to halve. For the molecule `CSCC[C@H](NC(=O)[C@H](Cc1ccc(O)cc1)NC(=O)CNC(=O)[C@@H](N)CC(=O)O)C(=O)N1CCC[C@H]1C(=O)O` [Asp-Gly-Tyr-Met-Pro] (H-DGYMP-OH), the Papp A→B at 60 min, 1 mM in data set [2] worked out at 0.7 ± 0.08 ×10⁻⁶ cm/s. Also, in the data set on Caco-2 cell monolayers [3], the “Effect of Gly-Sar (PEPT1 substrate) on Papp” value is on record as “not affected” and the “Papp in monolayers incubated with cytochalasin D vs untreated membranes” value is on record as “significantly higher”. Also, in the data set on Caco-2 cells, the “Resistance to peptidase degradation in Caco-2 cells” value is listed as “resistant to peptidase degradation”. In data set [4] (male, Sprague-Dawley, plasma, po, rat, p.o. 100 mg/kg BW, elimination half-life, n = 5), the half-life is 28 min. Also, the tmax in data set [4] (male, Sprague-Dawley, plasma, po, rat, p.o. 100 mg/kg BW, n = 5, read-out: tmax (converted)) was 15 min. The “Metabolites found in rat plasma” value in data set [4] (p.o. 100 mg/kg BW, plasma 30 min after administration, screened by m/z) was “Gly-Tyr-Met-Pro and Met-Pro”. In data set [4] (rat, p.o. 100 mg/kg BW, fasted 16 h, LC–TOF/MS with isotope-labelled internal standard, means ± SEM (n = 5)), this molecule came in with a Cmax of 2.78 ± 0.17 pmol/mL plasma. For the same molecule, in data set [4] (setting [6]), the “AUC0–60 min” value is 14.61 pmol ∙ min/mL plasma, the Cmax came out at 0.79 pmol/mL plasma, the t1/2 is recorded as 8.99 min and the tmax came out at 10 min. Further, in data set [4] (setting [7]), the “AUC0–60 min” value amounted to 648.91 pmol ∙ min/mL plasma, the Cmax came out at 27.25 pmol/mL plasma, the t1/2 was determined as 5.58 min and the tmax came to 30 min.

In the case of “Gly-Sar-Sar-Sar-Sar [pentapeptide transport model with methylated peptide bonds]”, in the data set with Caco-2 cell monolayers [5], the Papp was 8.6 ± 0.6^a,* ×10^−7 cm/s and the Papp, as given in text was 8.6 ×10^−7 cm/s.

These data come from publication PMC8429733, “Oral intake of rice overexpressing ubiquitin ligase inhibitory pentapeptide prevents atrophy in denervated skeletal muscle” (NPJ Science of Food, 2021).
